Measurements reported in patent publication US20030082511A1, “Identification of modulatory molecules using inducible promoters” (priority 2001, published 2003).

Legend:
[1] = target: T1, mouse potassium voltage-gated channel KCNC1 (Mus musculus, UniProt P15388); assay: Membrane potential assay (Disbac5Me4/Disbac3Me4 fluorescence) in tetracycline-inducible KCNC1 TREX/CHO cells; type: cell-based; settings: for response to KCl addition / depolarization with KCl (membrane potential dye fluorescence): induced KCNC1 CHO cells pre-incubated with BaCl2 30 mM at least 30 minutes; for depolarization (change in fluorescence intensity of the indicator dye) on addition of potassium chloride: KCl added in 50 mM steps, induced vs non-induced KCNC1 CHO cells, FIG. 4
T1 construct: The 2 kb KCNC1 gene fragment and the pcDNA4/Tob vector were gel purified, ligated; host or cells: T-REx CHO cells
T1 sequence (P15388 1-585 isoform P15388-3): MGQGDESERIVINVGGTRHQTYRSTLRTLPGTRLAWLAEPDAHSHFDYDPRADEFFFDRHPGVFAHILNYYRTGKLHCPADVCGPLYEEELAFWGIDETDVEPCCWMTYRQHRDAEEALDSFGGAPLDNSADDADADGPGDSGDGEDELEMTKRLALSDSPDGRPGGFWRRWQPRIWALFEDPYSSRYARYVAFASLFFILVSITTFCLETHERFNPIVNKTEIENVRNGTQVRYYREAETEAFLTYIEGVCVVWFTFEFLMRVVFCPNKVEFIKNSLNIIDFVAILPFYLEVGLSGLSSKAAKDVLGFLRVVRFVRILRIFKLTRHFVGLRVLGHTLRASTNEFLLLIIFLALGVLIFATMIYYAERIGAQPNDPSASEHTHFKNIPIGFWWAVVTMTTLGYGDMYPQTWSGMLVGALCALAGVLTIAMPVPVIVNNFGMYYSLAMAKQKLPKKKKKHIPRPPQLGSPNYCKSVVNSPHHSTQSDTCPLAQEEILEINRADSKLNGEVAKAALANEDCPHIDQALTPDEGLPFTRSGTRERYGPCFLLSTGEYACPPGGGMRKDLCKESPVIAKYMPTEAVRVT
Protocol: In this example, fluorescent dyes are used to assay for changes in membrane potential, essentially as described in Example 4.
A KCNC1 positive TREX/CHO clone was plated at 3×10^6 cells in replicate 10 cm tissue culture dishes. After 24 hours one dish was treated with 10 μg/mL deoxycycline to induce KCNC1 expression. After a 24 hour induction period, both induced and uninduced cells were harvested with trypsin, counted, and adjusted to equal cell densities in hybridoma media (Sigma, St. Louis, Mo.). A solution of 3.3×10^5 cells and 0.4 μM of each Disbac5Me4 and Disbac3Me4 in hybridoma media was stirred in a cuvette in a JY-Fluormax-2 fluorometer (JY, Edison N.J.). Fluorescence intensity from 540 nm excitation and 690 nm emission was measured over time. The extracellular potassium chloride level was adjusted to 50 mM, 10 mM, and 150 mM with 3 N KCl at the indicated times. Each cell population was tested in triplicate and the mean and standard error (SE) were determined.
4-aminopyridine is a known specific inhibitor of Kv3.1b (Grissmer et al., Molec. Pharmacol. 45:1227-1234, 1994; Kirsch and Drewe, Jour. Gen. Physiol. 102:797-816, 1993; Grissmer et al. Jour. Biol. Chem. 267:20971-20979, 1992), the human homologue of KCNC1. […] Pre-incubation with 30 mM KCl had no effect, ruling out the possibility that effects of BaCl2 resulted from simply changing the ionic strength of the extracellular medium (data not shown). Each cell population was tested in triplicate. The mean and SE are shown in the FIG. 5 (aminopyridine) and FIG. 6 (BaCl2).

[2] = target: T2, HERG potassium ion channel (Homo sapiens, UniProt Q12809); assay: Membrane potential assay (Disbac5Me4/Disbac3Me4 fluorescence) in inducible HERG TREX/CHO clone 5J; type: cell-based; settings: FIG. 8
T2 construct: expressed in transfected cells; host or cells: T-REx CHO cells, clone 5J
Protocol: The HERG positive TREX/CHO clone 5J was plated at 3×10^6 cells in replicate 10 cm tissue culture dishes. After 24 hours one dish was treated with […] doxycycline to induce HERG expression. After 24 hours induction, both induced and uninduced cells were harvested with trypsin, counted and adjusted to the same cell density in hybridoma media (Sigma). A solution of 1×10^5 cells/ml and 0.4 μM each Disbac5Me4 and Disbac3Me4 in hybridoma media was stirred in a cuvette in a JY-Spex fluorometer. Fluorescence intensity from 540 excitation and 690 emission was followed over time. The extracellular potassium chloride was adjusted to 100 mM with 3N KCl at the indicated time. 25 nM pimozide was then added at the indicated time.

T2 sequence (Q12809 whole entry): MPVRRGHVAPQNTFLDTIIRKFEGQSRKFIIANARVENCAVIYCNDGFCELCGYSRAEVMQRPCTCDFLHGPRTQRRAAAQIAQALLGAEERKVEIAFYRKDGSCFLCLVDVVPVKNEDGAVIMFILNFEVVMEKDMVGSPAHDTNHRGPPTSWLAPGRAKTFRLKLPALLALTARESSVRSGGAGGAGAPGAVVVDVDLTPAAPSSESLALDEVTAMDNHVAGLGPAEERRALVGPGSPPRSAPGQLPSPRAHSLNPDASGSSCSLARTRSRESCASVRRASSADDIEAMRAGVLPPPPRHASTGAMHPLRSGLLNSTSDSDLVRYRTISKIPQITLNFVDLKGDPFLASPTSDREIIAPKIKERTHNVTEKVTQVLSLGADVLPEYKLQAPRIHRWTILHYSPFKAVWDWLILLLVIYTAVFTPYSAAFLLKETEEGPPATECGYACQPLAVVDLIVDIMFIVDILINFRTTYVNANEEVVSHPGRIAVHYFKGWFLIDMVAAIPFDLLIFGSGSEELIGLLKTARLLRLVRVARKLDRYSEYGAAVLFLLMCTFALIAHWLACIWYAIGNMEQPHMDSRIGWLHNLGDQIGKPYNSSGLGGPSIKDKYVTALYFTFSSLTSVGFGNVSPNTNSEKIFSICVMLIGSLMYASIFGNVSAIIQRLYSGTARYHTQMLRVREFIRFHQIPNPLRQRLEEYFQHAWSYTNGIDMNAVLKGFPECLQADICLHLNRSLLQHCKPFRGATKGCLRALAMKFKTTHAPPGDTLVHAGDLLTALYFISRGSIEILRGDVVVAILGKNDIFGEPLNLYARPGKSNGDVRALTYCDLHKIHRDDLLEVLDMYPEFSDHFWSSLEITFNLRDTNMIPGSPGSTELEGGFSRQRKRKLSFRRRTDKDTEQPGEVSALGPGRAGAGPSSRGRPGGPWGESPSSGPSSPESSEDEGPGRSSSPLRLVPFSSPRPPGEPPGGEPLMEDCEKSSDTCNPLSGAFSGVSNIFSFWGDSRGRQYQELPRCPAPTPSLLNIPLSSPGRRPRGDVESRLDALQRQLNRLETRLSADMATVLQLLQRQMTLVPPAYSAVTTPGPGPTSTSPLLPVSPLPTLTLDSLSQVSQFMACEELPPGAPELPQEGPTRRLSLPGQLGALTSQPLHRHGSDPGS

Nc1ccncc1 [4-aminopyridine]
response to KCl addition (membrane potential dye fluorescence) ([1]; induced KCNC1 CHO cells pre-incubated with 4-aminopyridine 900 μM at least 30 minutes, FIG. 5): lessened the response to KCl addition
characteristics of cells induced to overexpress KCNC1 compared with uninduced cells ([1]; pre-incubated with 4-aminopyridine (900 μM), FIG. 5): show characteristics more similar to uninduced cells

[Ba+2].[Cl-].[Cl-] [BaCl2]
resting potential ([1]; KCNC1 CHO cells pre-incubated with BaCl2 30 mM at least 30 minutes, FIG. 6): less polarized resting potential
response to KCl addition / depolarization with KCl (membrane potential dye fluorescence) ([1]; FIG. 6): ameliorated the response to KCl addition
response to KCl addition / depolarization with KCl (membrane potential dye fluorescence) ([1]; FIG. 6, listed as BaCI2): decreased response to depolarization with KCl
characteristics of cells induced to overexpress KCNC1 compared with uninduced cells ([1]; pre-incubated with BaCl2 (30 mM), FIG. 6): show characteristics more similar to uninduced cells

[Cl-].[K+] [KCl, potassium chloride]
depolarization (change in fluorescence intensity of the indicator dye) on addition of potassium chloride [1]: show a response
depolarization (change in fluorescence intensity of the indicator dye) on addition of potassium chloride ([1]; listed as potassium chloride): depolarization of the an induced population of cells in comparison to a non-induced cell population
effect of pre-incubation on membrane potential response (ionic strength control) ([1]; pre-incubation with 30 mM KCl, data not shown): no effect
depolarization on addition of potassium chloride ([2]; 100 mM KCl, induced HERG expressing vs uninduced cells): depolarizes the HERG expressing cells to a greater extent than the uninduced cells

O=c1[nH]c2ccccc2n1C1CCN(CCCC(c2ccc(F)cc2)c2ccc(F)cc2)CC1 [pimozide]
sensitivity of membrane potential to pimozide ([2]; 25 nM pimozide added after 100 mM KCl, induced vs uninduced cells): more sensitive
